These results are taken from ChEMBL document CHEMBL4177586, “Small molecule adjuvants that suppress both chromosomal and mcr-1 encoded colistin-resistance and amplify colistin efficacy in polymyxin-susceptible bacteria” (Bioorg Med Chem, 2017).

Assay [1] concerns Acinetobacter baumannii. Description: Potentiation of colistin-induced antimicrobial activity against Acinetobacter baumannii ATCC 17978 expressing mcr1 gene assessed as reduction in colistin MIC at 60 uM incubated for overnight duration by CLSI based method relative to colistin alone control. It counts as functional.
Assay [2] relates to Escherichia coli. In words: Antimicrobial activity against Escherichia coli ATCC 25922 expressing mcr1 gene incubated for overnight duration by CLSI based method. Type of assay: functional, organism-based.
Assay [3] deals with Escherichia coli. Description: Antimicrobial activity against Escherichia coli YD626 expressing mcr1 gene incubated for overnight duration by CLSI based method. It counts as functional, organism-based.
The test system of assay [4] is Escherichia coli. Description: Antimicrobial activity against Escherichia coli ATCC 25922 incubated for overnight duration by CLSI based method. Type of assay: functional, organism-based.
Assay [5] relates to Klebsiella pneumoniae. In words: Antimicrobial activity against Klebsiella pneumoniae 2210291 expressing mcr1 gene incubated for overnight duration by CLSI based method. Type of assay: functional, organism-based.
The test system of assay [6] is Escherichia coli. In words: Antimicrobial activity against Escherichia coli YD626 incubated for overnight duration by CLSI based method. It counts as functional, organism-based.
Assay [7] has as its system Klebsiella pneumoniae. Description: Antimicrobial activity against Klebsiella pneumoniae 2210291 incubated for overnight duration by CLSI based method. Type of assay: functional, organism-based.
Assay [8] deals with Acinetobacter baumannii. In words: Antimicrobial activity against Acinetobacter baumannii SM1536 expressing mcr1 gene incubated for overnight duration by CLSI based method. Type of assay: functional, organism-based.
Assay [9] deals with Acinetobacter baumannii. In words: Antimicrobial activity against Acinetobacter baumannii SM1536 incubated for overnight duration by CLSI based method. It counts as functional, organism-based.
Assay [10] relates to Acinetobacter baumannii. In words: Antimicrobial activity against Acinetobacter baumannii ATCC 17978 incubated for overnight duration by CLSI based method. Type of assay: functional, organism-based.
Assay [11] concerns Acinetobacter baumannii. In words: Antimicrobial activity against Acinetobacter baumannii ATCC 17978 expressing mcr1 gene incubated for overnight duration by CLSI based method. Type of assay: functional, organism-based.

Turning to `O=C(NCCc1c[nH]c2ccccc12)c1cc(Cl)c(Cl)[nH]1`, the “fold change (FC)” value in the assay with Acinetobacter baumannii [1] is on record as 32.

With COLISTIN, the MIC against Escherichia coli [2] stood at 8 µg/mL; against Escherichia coli [3], 4 µg/mL; with Escherichia coli [4], 1 µg/mL; against Klebsiella pneumoniae [5], 16 µg/mL; in the assay on Escherichia coli [6], 1 µg/mL; in the assay with Klebsiella pneumoniae [7] it was 1 µg/mL. Also, the MIC in the assay with Acinetobacter baumannii [8] was 64 µg/mL; in the assay on Acinetobacter baumannii [9], 2 µg/mL; with Acinetobacter baumannii [10] it was 2 µg/mL; with Acinetobacter baumannii [11], 16 µg/mL.
